Results on 3 molecules are retold here after patent publication US20220394979A1 (priority 2021, published 2022).

For data set [1] the following is noted: recommended storage conditions; cited from earlier work.
The test system of data set [2] is parasites and protozoan oocysts. To be noted: 20,000 mg/L ammonium phosphate, NH3 30 mg/L at pH 7.4, 300 mg/L at pH 8.4, cited from earlier work.
The next data set relates to C. perfringes. As to conditions: Ammonia at 0.1% w/w.
The next data set deals with bacteria. To be noted: quat 0.5% (5 g/L), cited from earlier work.
The subject of another data set is virus. To be noted: quat 0.5% (5 g/L), cited from earlier work.

Where two headings read alike, the source gives them in different places.

`N.N.O=P(O)(O)O` [Ammonium Phosphate/Nonionized Ammonia, Ammonium Phosphate Dibasic]: the Storage stability entry in data set [1] was “Stable under recommended storage”. Also, the results for the “Degree of Inactivation: log reduction of parasites and protozoan oocysts” value in data set [2] and in data set [2] (listed as Ammonium Phosphate) were 6 log reduction of parasites and and 6 log reduction of, respectively.
As for `N` [Ammonia], the “level of C. perfringes after treatment” value in the data set with C. perfringes (raw biosolids at 1×10^7) is on record as “less than 2×10^2”. The “log reduction of spore forming bacteria and parasites” value with C. perfringes (raw biosolids) is “five log reductions”.
For “C12-C14-alkyl (ethylbenzyl) dimethyl ammonium chloride [Quaternary Amines]”, the “Degree of Inactivation: log reduction of bacteria” value was 9 log reduction of bacteria in the data set with bacteria and 9 log reduction of in the data set with bacteria (listed as Quats). Moreover, the “Degree of Inactivation: log reduction of virus” value is on record as 6 log reduction, of virus in the data set on virus and 6 log reduction. of in the data set on virus (listed as Quats).
